Target: bovine serum albumin (BSA) (Bos taurus, UniProt P02769)
Test: Protein binding studies (albumin binding, centrifugal ultrafiltration, HPLC)
Assay type: in vitro ADME
Conditions: didanosine and didanosine prodrugs; method of Example 7: 4% BSA in water, 30 minutes at 37° C., 10,000 MWCO centrifugal filter, phosphate buffer pH 7.4 reference
Experimental: The compound (approximately 5 mg) was dissolved in DMSO (approximately 1.8 ml). A small sample of this DMSO solution (approximately 5 mg) was added to a solution of bovine serum albumin (BSA) in water (approximately 1.8 ml, 4% BSA). Another sample of the DMSO solution (approximately 5 mg) was added to a solution of phosphate buffer pH 7.4 (isotonic) (approximately 1.8 ml).
Both samples were shaken in a water bath for 30 minutes at 37° C.
The devices were centrifugated at 4000 rpm for 1 hour at 37° C.
The amount of drug in the filtrates was determined by HPLC(C-18 column, phosphate buffer pH 2.2/acetonitrile, UV detection).

Chain of bovine serum albumin (BSA) (P02769 25-607): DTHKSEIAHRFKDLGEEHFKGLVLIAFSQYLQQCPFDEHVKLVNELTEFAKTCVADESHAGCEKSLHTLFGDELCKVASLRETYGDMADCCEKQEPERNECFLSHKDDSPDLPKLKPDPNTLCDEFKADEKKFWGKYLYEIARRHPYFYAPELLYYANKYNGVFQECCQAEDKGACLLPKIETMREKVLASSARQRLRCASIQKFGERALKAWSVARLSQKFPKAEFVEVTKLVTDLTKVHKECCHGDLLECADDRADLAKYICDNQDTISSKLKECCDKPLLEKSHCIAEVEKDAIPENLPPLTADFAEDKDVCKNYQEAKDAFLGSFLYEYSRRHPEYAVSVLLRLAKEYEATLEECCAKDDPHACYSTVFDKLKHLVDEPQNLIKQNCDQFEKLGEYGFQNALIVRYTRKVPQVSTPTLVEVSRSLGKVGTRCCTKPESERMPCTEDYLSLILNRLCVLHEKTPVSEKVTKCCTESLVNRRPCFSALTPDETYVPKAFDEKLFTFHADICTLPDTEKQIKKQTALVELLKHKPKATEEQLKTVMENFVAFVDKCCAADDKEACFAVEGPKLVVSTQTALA

SMILES | % Albumin binding
O=C(O)CCCCCCCCCCC(=O)OCC1CCC(n2cnc3c(=O)[nH]cnc32)O1 (stereo not shown) [2′,3′-dideoxy-5′-hydrogen dodecanedioate inosine] | 94%
O=C(O)CCCCCCCCCCCCCCC(=O)OCC1CCC(n2cnc3c(=O)[nH]cnc32)O1 (stereo not shown) [2′,3′-dideoxy-5′-hydrogen hexadecanedioate inosine] | 100%
O=C(O)CCCCC(=O)OCC1CCC(n2cnc3c(=O)[nH]cnc32)O1 (stereo not shown) [2′,3′-dideoxy-5′-hydrogen hexanedioate inosine] | 10%
O=C(O)CCCCCCC(=O)OCC1CCC(n2cnc3c(=O)[nH]cnc32)O1 (stereo not shown) [2′,3′-dideoxy-5′-hydrogen octanedioate inosine] | 40%
